The values that follow come from US10538495B2, “Modulators of indoleamine 2,3-dioxygenase” (GLAXOSMITHKLINE INTELLECTUAL PROPERTY DEVELOPMENT LIMITED, priority 2016, dated 2020).

For experiment [1], the target named is T1, indoleamine 2,3-dioxygenase (IDO1) (Homo sapiens, UniProt P14902). The experiment can be described thus: PBMC IDOi assay (kynurenine by mass spectrometry). The experiment is classed as cell-based. Particulars: IFN-γ and LPS stimulated human PBMC, 2 days, kynurenine detected by mass spectrometry; read-out: PBMC pIC50 (converted). The method, then:
(§1) Brief descriptions of the cellular assays are provided following the table.
(§2) Compounds of the present invention were tested via high-throughput cellular assays utilizing detection of kynurenine via mass spectrometry and cytotoxicity as end-points. For the mass spectrometry and cytotoxicity assays, human peripheral blood mononuclear cells (PBMC) (PB003F; AllCells®, Alameda, Calif.) were stimulated with human interferon-γ (IFN-γ) (Sigma-Aldrich Corporation, St. Louis, Mo.) and lipopolysaccharide from Salmonella minnesota (LPS) (Invivogen, San Diego, Calif.) to induce the expression of indoleamine 2,3-dioxygenase (IDO1). Compounds with IDO1 inhibitory properties decreased the amount of kynurenine produced by the cells via the tryptophan catabolic pathway. Cellular toxicity due to the effect of compound treatment was measured using CellTiter-Glo® reagent (CTG) (Promega Corporation, Madison, Wis.), which is based on luminescent detection of ATP, an indicator of metabolically active cells.
(§3) In preparation for the assays, test compounds were serially diluted 3-fold in DMSO from a typical top concentration of 5 mM and plated at 0.5 μL in 384-well, polystyrene, clear bottom, tissue culture treated plates with lids (Greiner Bio-One, Kremsmünster, Austria) to generate 11-point dose response curves. Low control wells (0% kynurenine or 100% cytotoxicity) contained either 0.5 μL of DMSO in the presence of unstimulated (−IFN-γ/−LPS) PBMCs for the mass spectrometry assay or 0.5 μL of DMSO in the absence of cells for the cytotoxicity assay, and high control wells (100% kynurenine or 0% cytotoxicity) contained 0.5 μL of DMSO in the presence of stimulated (+IFN-γ/+LPS) PBMCs for both the mass spectrometry and cytotoxicity assays.
Frozen stocks of PBMCs were washed and recovered in RPMI 1640 medium (Thermo Fisher Scientific, Inc., Waltham, Mass.) supplemented with 10% v/v heat-inactivated fetal bovine serum (FBS) (Thermo Fisher Scientific, Inc., Waltham, Mass.), and 1× penicillin-streptomycin antibiotic solution (Thermo Fisher Scientific, Inc., Waltham, Mass.). The cells were diluted to 1,000,000 cells/mL in the supplemented RPMI 1640 medium. 50 μL of either the cell suspension, for the mass spectrometry assay, or medium alone, for the cytotoxicity assay, were added to the low control wells, on the previously prepared 384-well compound plates, resulting in 50,000 cells/well or 0 cells/well respectively. IFN-γ and LPS were added to the remaining cell suspension at final concentrations of 100 ng/ml and 50 ng/ml respectively, and 50 μL of the stimulated cells were added to all remaining wells on the 384-well compound plates. The plates, with lids, were then placed in a 37° C., 5% CO2 humidified incubator for 2 days.
Following incubation, the 384-well plates were removed from the incubator and allowed to equilibrate to room temperature for 30 minutes. For the cytotoxicity assay, CellTiter-Glo® was prepared according to the manufacturer's instructions, and 40 μL were added to each plate well. After a twenty minute incubation at room temperature, luminescence was read on an EnVision® Multilabel Reader (PerkinElmer Inc., Waltham, Mass.). For the mass spectrometry assay, 10 μL of supernatant from each well of the compound-treated plates were added to 40 μL of acetonitrile, containing 10 μM of an internal standard for normalization, in 384-well, polypropylene, V-bottom plates (Greiner Bio-One, Kremsmünster, Austria) to extract the organic analytes. Following centrifugation at 2000 rpm for 10 minutes, 10 μL from each well of the acetonitrile extraction plates were added to 90 μL of sterile, distilled H2O in 384-well, polypropylene, V-bottom plates for analysis of kynurenine and the internal standard on the RapidFire 300 (Agilent Technologies, Santa Clara, Calif.) and 4000 QTRAP MS (SCIEX, Framingham, Mass.). […]

Experiment [2] concerns the target T1, indoleamine 2,3-dioxygenase (IDO1). The experiment in a line: HeLa IDOi assay (kynurenine by mass spectrometry). The experiment is classed as cell-based. As to conditions: IFN-γ stimulated HeLa cells, 2 days, kynurenine detected by mass spectrometry; read-out: HeLa pIC50 (converted). The arrangement: human epithelial HeLa cells (CCL-2; host or cells: HeLa cells stimulated with human IFN-γ. The procedure:
as §1
as §2, with “epithelial HeLa” for “peripheral blood mononuclear”, “(CCL-2; ATCC®, Manassas, Va.)” for “(PBMC) (PB003F; AllCells®, Alameda, Calif.)”, “Mo.)” for “Mo.) and lipopolysaccharide from Salmonella minnesota (LPS) (Invivogen, San Diego, Calif.)”
as §3, with “(−IFN-γ) HeLa cells” for “(−IFN-γ/−LPS) PBMCs”, “(+IFN-γ) HeLa cells” for “(+IFN-γ/+LPS) PBMCs”
Frozen stocks of HeLa cells were washed and recovered in DMEM high glucose medium with HEPES (Thermo Fisher Scientific, Inc., Waltham, Mass.) supplemented with 10% v/v certified fetal bovine serum (FBS) (Thermo Fisher Scientific, Inc., Waltham, Mass.), and 1× penicillin-streptomycin antibiotic solution (Thermo Fisher Scientific, Inc., Waltham, Mass.). The cells were diluted to 100,000 cells/mL in the supplemented DMEM medium. 50 μL of either the cell suspension, for the mass spectrometry assay, or medium alone, for the cytotoxicity assay, were added to the low control wells, on the previously prepared 384-well compound plates, resulting in 5,000 cells/well or 0 cells/well respectively. IFN-γ was added to the remaining cell suspension at a final concentration of 10 nM, and 50 μL of the stimulated cells were added to all remaining wells on the 384-well compound plates. The plates, with lids, were then placed in a 37° C., 5% CO2 humidified incubator for 2 days.
Following incubation, the 384-well plates were removed from the incubator and allowed to equilibrate to room temperature for 30 minutes. For the cytotoxicity assay, CellTiter-Glo® was prepared according to the manufacturer's instructions, and 10 μL were added to each plate well. After a twenty minute incubation at room temperature, luminescence was read on an EnVision® Multilabel Reader (PerkinElmer Inc., Waltham, Mass.). For the mass spectrometry assay, 10 μL of supernatant from each well of the compound-treated plates were added to 40 μL of acetonitrile, containing 10 μM of an internal standard for normalization, in 384-well, polypropylene, V-bottom plates (Greiner Bio-One, Kremsmünster, Austria) to extract the organic analytes. Following centrifugation at 2000 rpm for 10 minutes, 10 μL from each well of the acetonitrile extraction plates were added to 90 μL of sterile, distilled H2O in 384-well, polypropylene, V-bottom plates for analysis of kynurenine and the internal standard on the RapidFire 300 (Agilent Technologies, Santa Clara, Calif.) and 4000 QTRAP MS (SCIEX, Framingham, Mass.). MS data were integrated using Agilent Technologies' RapidFire Integrator software, and data were normalized for analysis as a ratio of kynurenine to the internal standard. […]

T1 sequence (P14902 whole entry): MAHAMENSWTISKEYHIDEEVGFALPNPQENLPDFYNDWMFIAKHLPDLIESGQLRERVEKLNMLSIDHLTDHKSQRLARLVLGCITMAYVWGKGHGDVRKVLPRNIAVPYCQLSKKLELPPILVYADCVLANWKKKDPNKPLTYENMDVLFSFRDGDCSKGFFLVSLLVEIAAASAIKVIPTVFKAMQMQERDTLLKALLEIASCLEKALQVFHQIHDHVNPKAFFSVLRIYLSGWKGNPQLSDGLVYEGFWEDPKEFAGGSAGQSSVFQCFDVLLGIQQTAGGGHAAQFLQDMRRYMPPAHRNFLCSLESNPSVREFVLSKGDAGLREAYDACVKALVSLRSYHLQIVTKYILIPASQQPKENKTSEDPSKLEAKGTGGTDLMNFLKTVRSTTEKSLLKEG

For the compound `CC(C)(C)Sc1ncc(-c2ccccc2-c2nnn[nH]2)cc1NC(=O)Cc1ccccc1C(F)(F)F` [Example 67, N-(5-(2-(1H-tetrazol-5-yl)phenyl)-2-(tert-butylthio)pyridin-3-yl)-2-(2-(trifluoromethyl)phenyl)acetamide], the IC50 in experiment [1] was 12.6 nM; in experiment [2] it was 100 nM.

Regarding `Cc1cccc(CC(=O)Nc2cc(-c3ccccc3-c3nn[nH]n3)ccc2SC(C)(C)C)c1` [Example 20, N-(4-(tert-butylthio)-2′-(2H-tetrazol-5-yl)-[1,1′-biphenyl]-3-yl)-2-(m-tolyl)acetamide], the IC50 in experiment [1] was 20 nM; in experiment [2] it was 25.1 nM.

On to `Cc1ccc(NC(=O)Nc2cc(-c3ccccc3C(=O)O)ccc2SC(C)(C)C)cc1` [Example 14, 4′-(tert-Butylthio)-3′-(3-(p-tolyl)ureido)-[1,1′-biphenyl]-2-carboxylic Acid], for which, in experiment [1], the IC50 is 1580 nM.

As for `CC(C)(C)Sc1ccc(-c2ccccc2-c2nn[nH]n2)cc1NC(=O)Cc1ccc(Cl)cc1` [Example 34, N-(4-(tert-butylthio)-2′-(2H-tetrazol-5-yl)-[1,1′-biphenyl]-3-yl)-2-(4-chlorophenyl)acetamide], the figures for the IC50 in experiment [1] and in experiment [2] were 25.1 nM and 79.4 nM, respectively.

For the compound `Cc1ccc(CC(=O)Nc2cc(-c3ccccc3C(=O)O)ccc2SC(C)(C)C)cc1` [Example 4, 4′-(tert-Butylthio)-3′-(2-(p-tolyl)acetamido)-[1,1′-biphenyl]-2-carboxylic acid], the IC50 is 794 nM in experiment [1] and 316 nM in experiment [2].

As to `Cc1ccc(CC(=O)Nc2cc(-c3ccccc3-c3nnnn3COP(=O)(O)O)ccc2SC(C)(C)C)cc1` [Example 52, (5-(4′-(tert-Butylthio)-3′-(2-(p-tolyl)acetamido)-[1,1′-biphenyl]-2-yl)-1H-tetrazol-1-yl)methyl Dihydrogen], the IC50 in experiment [1] was 158 nM; in experiment [2] it was 25.1 nM.

Turning to `Cc1ccc(CC(=O)Nc2cc(-c3ccccc3-c3nnn(COC(=O)C(C)(C)C)n3)ccc2SC(C)(C)C)cc1` [Example 55, (5-(4′-(tert-Butylthio)-3′-(2-(p-tolyl)acetamido)-[1,1′-biphenyl]-2-yl)-2H-tetrazol-2-yl)methyl pivalate], the IC50 was 50.1 nM in experiment [1] and 31.6 nM in experiment [2].

For the compound `Cc1ccc(CC(=O)Nc2cc(-c3ccccc3C#N)ccc2SC(C)(C)C)cc1` [Example 46, N-(4-(tert-butylthio)-2′-cyano-[1,1′-biphenyl]-3-yl)-2-(p-tolyl)acetamide], the IC50 in experiment [1] is 5010 nM; in experiment [2], 6310 nM.

Turning to `Cc1ccc(CC(=O)Nc2cc(-c3ccccc3-c3nnn[nH]3)cnc2SC(C)(C)C)c(C)c1` [Example 66, N-(5-(2-(1H-tetrazol-5-yl)phenyl)-2-(tert-butylthio)pyridin-3-yl)-2-(2,4-dimethylphenyl)acetamide], the IC50 in experiment [1] is 7.94 nM; in experiment [2], 10 nM.

Take `Cc1ccc(OC(=O)Nc2cc(-c3ccccc3-c3nn[nH]n3)ccc2SC(C)(C)C)cc1` [Example 35, p-Tolyl (4-(tert-butylthio)-2′-(2H-tetrazol-5-yl)-[1,1′-biphenyl]-3-yl)carbamate]: the IC50 is 1580 nM in experiment [1] and more than 3160 nM in experiment [2].

`Cc1ccc(CC(=O)Nc2cc(-c3ccccc3C(N)=O)ccc2SC(C)(C)C)cc1` [Example 47, 4′-(tert-Butylthio)-3′-(2-(p-tolyl)acetamido)-[1,1′-biphenyl]-2-carboxamide]: the IC50 in experiment [1] and in experiment [2] was 501 nM throughout.

As to `Cc1ccccc1CC(=O)Nc1cc(-c2ccccc2-c2nn[nH]n2)ccc1SC(C)(C)C` [Example 19, N-(4-(tert-butylthio)-2′-(2H-tetrazol-5-yl)-[1,1′-biphenyl]-3-yl)-2-(o-tolyl)acetamide], the IC50 in experiment [1] was 10 nM; in experiment [2] it was 15.8 nM.

On to `Cc1ccc(CC(=O)Nc2cc(-c3ccccc3-c3nnn[nH]3)cnc2SC(C)(C)C)cc1` [Example 64, N-(5-(2-(1H-tetrazol-5-yl)phenyl)-2-(tert-butylthio)pyridin-3-yl)-2-(p-tolyl)acetamide], for which the IC50 was 50.1 nM in experiment [1] and 63.1 nM in experiment [2].

Regarding `CC(C)(C)Sc1ccc(-c2ccccc2-c2nn[nH]n2)cc1Nc1nc(C(F)(F)F)ns1` [Example 43, N-(4-(tert-butylthio)-2′-(2H-tetrazol-5-yl)-[1,1′-biphenyl]-3-yl)-3-(trifluoromethyl)-1,2,4-thiadiazol-5-amine], the IC50 in experiment [1] is 12.6 nM; in experiment [2] it was 50.1 nM.

In the case of `Cc1ccc(CC(=O)Nc2cc(C(C)CC(=O)O)ccc2SC(C)(C)C)cc1` (stereo not shown) [Example 44, 3-(4-(tert-Butylthio)-3-(2-(p-tolyl)acetamido)phenyl)butanoic Acid], the IC50 in experiment [1] is 3980 nM.
